The results in this text go back to US20050107423A1, “Quinolone antibacterial agents” (priority 2003, published 2005).

Common to all, as to assay: Antibacterial assay, microtitration MIC (Test A)
Format in all cases: cell-based

One experiment deals with M. catarrhalis BC-3531. The settings on record: strain BC-3531; for MIC: Moraxella catarrhalis, BC3531, Gram Negative Bacteria, read-out: Minimum Inhibitory Concentrations M. catarrhalis BC-3531. The method, then: (§1) The compounds of the present invention were tested against an assortment of Gram-negative and Gram-positive organisms using standard microtitration techniques (Cohen et. al., Antimicrob., 1985;28:766; Heifetz, et. al., Antimicrob., 1974;6:124). The results of the evaluation are shown in Tables 1A and B, wherein “-” means no data.

The subject of a further experiment is E. coli EC-2549. To be noted: strain EC-2549; for MIC: Escherichia coli, EC2549, Gram Negative Bacteria, read-out: Minimum Inhibitory Concentrations E. coli EC-2549. The method, then:
as §1

In a further experiment the test system is H. influenzae HI-3542. The settings on record: strain HI-3542; for MIC: Haemophilus influenzae, HI3542, Gram Negative Bacteria, read-out: Minimum Inhibitory Concentrations H. influenzae HI-3542. The method, then: as §1

Values after ≈ are worked out from the molar mass of the structure shown.

`Cc1c(N2CCC(C(C)O)C2)c(F)cc2c(=O)c(C(=O)O)cn(C3CC3)c12` (stereo not drawn) [drawing 317]: the “Minimum Inhibitory Concentrations M. catarrhalis BC-3531” value in the experiment with M. catarrhalis BC-3531 (Gram Negative Bacteria) stood at 0.008 µg/mL. In addition, the “Minimum Inhibitory Concentrations E. coli EC-2549” value in the experiment with E. coli EC-2549 (Gram Negative Bacteria) was determined as 0.06 µg/mL. Also, the “Minimum Inhibitory Concentrations H. influenzae HI-3542” value in the experiment with H. influenzae HI-3542 (Gram Negative Bacteria) came out at 0.004 µg/mL.

For `COc1c(N2CCC(C(O)c3ccc(S(C)(=O)=O)o3)C2)c(F)cc2c(=O)c(C(=O)O)cn(C3CC3)c12` (stereo not drawn) [drawing 319], the MIC in the experiment on M. catarrhalis BC-3531 amounted to 0.125 µg/mL (≈ 0.24 µM); in the experiment on E. coli EC-2549 it was 2 µg/mL (≈ 3.84 µM); in the experiment on H. influenzae HI-3542 it was 0.06 µg/mL (≈ 0.115 µM).

In the case of `O=C(O)c1cn(C2CC2)c2c(Cl)c(N3CCC(C(O)C4(CO)CC4)C3)c(F)cc2c1=O` (stereo not drawn) [drawing 321], the MIC in the experiment on M. catarrhalis BC-3531 was 0.016 µg/mL (≈ 0.0355 µM); in the experiment on E. coli EC-2549, 0.06 µg/mL (≈ 0.133 µM); with H. influenzae HI-3542, 0.008 µg/mL (≈ 0.0177 µM).

On to `COc1c(N2CCC(C(O)CO)C2)c(F)cc2c(=O)c(C(=O)O)cn(C3CC3)c12` (stereo not drawn) [drawing 322], for which the MIC in the experiment on M. catarrhalis BC-3531 turned out to be 0.04 µg/mL (≈ 0.0984 µM); in the experiment on E. coli EC-2549 it was 0.03 µg/mL (≈ 0.0738 µM); in the experiment on H. influenzae HI-3542, 0.015 µg/mL (≈ 0.0369 µM).

Consider `Cc1c(N2CCC(C(O)CO)C2)c(F)cc2c(=O)c(C(=O)O)cn(C3CC3)c12` (stereo not drawn) [drawing 323], for which the MIC turned out to be 1 µg/mL (≈ 2.56 µM) in the experiment on M. catarrhalis BC-3531, 4 µg/mL (≈ 10.2 µM) with E. coli EC-2549 and 0.5 µg/mL (≈ 1.28 µM) in the experiment on H. influenzae HI-3542.

As to `O=C(O)c1cn(C2CC2)c2c(Cl)c(N3CCC(C(O)CO)C3)c(F)cc2c1=O` (stereo not drawn) [drawing 324], the MIC amounted to 0.016 µg/mL (≈ 0.0389 µM) with M. catarrhalis BC-3531, 0.06 µg/mL (≈ 0.146 µM) with E. coli EC-2549 and 0.004 µg/mL (≈ 0.00974 µM) in the experiment on H. influenzae HI-3542.

For `Nc1nc(-n2cc(C(=O)O)c(=O)c3cc(F)c(N4CCC(C(O)CO)C4)cc32)c(F)cc1F` (stereo not drawn) [drawing 325], the MIC in the experiment on M. catarrhalis BC-3531 worked out at 0.015 µg/mL (≈ 0.0323 µM); with E. coli EC-2549, 0.06 µg/mL (≈ 0.129 µM); in the experiment with H. influenzae HI-3542, 0.004 µg/mL (≈ 0.00861 µM).

Consider `Nc1nc(-n2cc(C(=O)O)c(=O)c3cc(F)c(N4CCC(C(O)CO)C4)c(Cl)c32)c(F)cc1F` (stereo not drawn) [drawing 326], for which the figures for the MIC in the experiment with M. catarrhalis BC-3531, in the experiment with E. coli EC-2549 and with H. influenzae HI-3542 were 0.125 µg/mL (≈ 0.251 µM), 0.25 µg/mL (≈ 0.501 µM) and 0.008 µg/mL (≈ 0.016 µM), respectively.

Take `COc1c(N2CCC(C3(O)CC3)C2)c(F)cc2c(=O)c(C(=O)O)cn(C3CC3)c12` (stereo not drawn) [drawing 327]: the MIC in the experiment with M. catarrhalis BC-3531 was 0.03 µg/mL (≈ 0.0745 µM); in the experiment on E. coli EC-2549, 0.25 µg/mL (≈ 0.621 µM); in the experiment with H. influenzae HI-3542, 0.03 µg/mL (≈ 0.0745 µM).

For the molecule `COc1c(N2CCC(C(O)C3(O)CC3)C2)c(F)cc2c(=O)c(C(=O)O)cn(C3CC3)c12` (stereo not drawn) [drawing 328], the MIC came to 0.125 µg/mL (≈ 0.289 µM) with M. catarrhalis BC-3531, 0.5 µg/mL (≈ 1.16 µM) with E. coli EC-2549 and 0.015 µg/mL (≈ 0.0347 µM) in the experiment on H. influenzae HI-3542.

Regarding `Cc1c(N2CCC(C(O)C(F)(F)F)C2)c(F)cc2c(=O)c(C(=O)O)cn(C3CC3)c12` (stereo not drawn) [drawing 329], the MIC amounted to 0.03 µg/mL (≈ 0.07 µM) in the experiment on M. catarrhalis BC-3531, 0.5 µg/mL (≈ 1.17 µM) in the experiment on E. coli EC-2549 and 0.06 µg/mL (≈ 0.14 µM) in the experiment with H. influenzae HI-3542.

`COc1c(N2CCC(C(O)C(F)(F)F)C2)c(F)cc2c(=O)c(C(=O)O)cn(C3CC3)c12` (stereo not drawn) [drawing 331]: the MIC was determined as 0.008 µg/mL (≈ 0.018 µM) in the experiment with M. catarrhalis BC-3531, 0.125 µg/mL (≈ 0.281 µM) in the experiment with E. coli EC-2549 and 0.015 µg/mL (≈ 0.0338 µM) in the experiment on H. influenzae HI-3542.

As for `Nc1c(F)c(N2CCC(C(O)C(F)(F)F)C2)c(F)c2c1c(=O)c(C(=O)O)cn2C1CC1` (stereo not drawn) [drawing 332], the MIC in the experiment with M. catarrhalis BC-3531 is 0.008 µg/mL (≈ 0.0179 µM); in the experiment on E. coli EC-2549, 0.06 µg/mL (≈ 0.134 µM); in the experiment with H. influenzae HI-3542, 0.004 µg/mL (≈ 0.00894 µM).

`Nc1nc(-n2cc(C(=O)O)c(=O)c3cc(F)c(N4CCC(C(O)C(F)(F)F)C4)c(Cl)c32)c(F)cc1F` (stereo not drawn) [drawing 333]: the MIC with M. catarrhalis BC-3531 worked out at 0.125 µg/mL (≈ 0.233 µM); in the experiment on E. coli EC-2549, 1 µg/mL (≈ 1.86 µM); in the experiment with H. influenzae HI-3542, 0.06 µg/mL (≈ 0.112 µM).

In the case of `O=C(O)c1cn(C2CC2)c2nc(N3CCC(C(O)C(F)(F)F)C3)c(F)cc2c1=O` (stereo not drawn) [drawing 334], the figures for the MIC in the experiment on M. catarrhalis BC-3531, in the experiment with E. coli EC-2549 and in the experiment with H. influenzae HI-3542 were 0.016 µg/mL (≈ 0.0385 µM), 0.125 µg/mL (≈ 0.301 µM) and 0.016 µg/mL (≈ 0.0385 µM), respectively.

Turning to `Cc1c(N2CCC(C(F)(F)CO)C2)c(F)cc2c(=O)c(C(=O)O)cn(C3CC3)c12` (stereo not drawn) [drawing 335], the MIC in the experiment on M. catarrhalis BC-3531 stood at 0.03 µg/mL (≈ 0.0731 µM); in the experiment on E. coli EC-2549, 0.125 µg/mL (≈ 0.305 µM); with H. influenzae HI-3542, 0.015 µg/mL (≈ 0.0366 µM).

Take `Cc1c(N2CCC(C(O)C(C)(F)F)C2)c(F)cc2c(=O)c(C(=O)O)cn(C3CC3)c12` (stereo not drawn) [drawing 336]: the values for the MIC with M. catarrhalis BC-3531, in the experiment on E. coli EC-2549 and in the experiment with H. influenzae HI-3542 were 0.03 µg/mL (≈ 0.0707 µM), 0.125 µg/mL (≈ 0.295 µM) and 0.03 µg/mL (≈ 0.0707 µM), respectively.

Take `COCC(O)C1CCN(c2c(F)cc3c(=O)c(C(=O)O)cn(C4CC4)c3c2C)C1` (stereo not drawn) [drawing 337]: the MIC in the experiment on M. catarrhalis BC-3531 was found to be 0.125 µg/mL (≈ 0.309 µM); in the experiment on E. coli EC-2549, 1 µg/mL (≈ 2.47 µM); with H. influenzae HI-3542, 0.125 µg/mL (≈ 0.309 µM).

Turning to `Cc1c(N2CCC(C(O)(CO)C(F)(F)F)C2)c(F)cc2c(=O)c(C(=O)O)cn(C3CC3)c12` (stereo not drawn) [drawing 338], the MIC with M. catarrhalis BC-3531 was 0.06 µg/mL (≈ 0.131 µM); in the experiment with E. coli EC-2549, 0.5 µg/mL (≈ 1.09 µM); in the experiment with H. influenzae HI-3542, 0.06 µg/mL (≈ 0.131 µM).

For the molecule `CC(O)(CO)C1CCN(c2c(F)cc3c(=O)c(C(=O)O)cn(C4CC4)c3c2Cl)C1` (stereo not drawn) [drawing 339], the MIC with M. catarrhalis BC-3531 worked out at 0.03 µg/mL (≈ 0.0706 µM); in the experiment on E. coli EC-2549, 0.125 µg/mL (≈ 0.294 µM); in the experiment on H. influenzae HI-3542, 0.16 µg/mL (≈ 0.377 µM).
